Measured values from patent US20250277794A1, “SQSTM1 AND ITS USE IN CANCER THERAPY” (CENTRE NATIONAL DE LA RECHERCHE SCIENTIFIQUE, priority 2020, published 2025).

Legend:
Assay type in all cases: cell-based, human
[1] = system: HLA-B and PD-L1 expression in ShC A549 cells; assay: IFN/HLA-B/PD-L1 pathway expression (qRT-PCR, western blot, flow cytometry) in shControl A549 cells; conditions: for Induction of HLA-B and PD-L1 expression: ShC (SQSTM1 positive) A549 cells, 5-Aza 500 nM, 5 and 6 days, IFNG 50 ng/ml
[2] = system: shControl (ShC) A549 cells; assay: Cell viability / Crystal Violet Cytotoxicity Assay, dose-response IC50, shControl A549 cells
Procedure: (§1) The majority of experiments presented in this study was performed with the human KRAS G12S/SKT11 Q37* co-mutated NSCLC A549 cells (American Type Tissue Collection, ATCC). All cells were maintained in Dulbecco's-modified minimum essential medium and Ham's F-12 medium (DMEM/F12 Glutamax; Life Technologies) supplemented with 10% fetal bovine serum (Dutcher), 2% Sodium Pyruvate, and 1% Penicillin-Streptomycin (Life technologies). To establish SQSTM1 knockdown stable cell lines, cells were transduced with small hairpin RNAs (shRNAs) lentiviruses that target the mRNA coding sequence of SQSTM1. Two distinct SQSTM1 shRNAs (Sigma, human, NM_003900, SQSTM1 #1, TRCN0000007237, and SQSTM1 #2, TRCN0000007236) were used to minimize sequence-dependent off-target effects. As controls, autophagy was inhibited at the initiation step by ATG5 (Sigma, human, NM_004849, ATG5 #1, TRCN0000151963) or ATG7 shRNA (Sigma, human, NM_006395, TRCN0000007584). For this purpose, the targeted and control (Sigma; SHC002V) shRNA lentivirus were transduced into the cells. ShRNA-mediated protein downregulation was controlled by qRT-PCR or immunoblotting with specific primers and antibodies (see for shRNA, primer, and antibody details the supplemental Tables 1 to 3).
(§2) For all experiments, cells were seeded in 6-well plates or 60 mm culture dishes and incubated until they reached 60-70% confluency.

ShSQSTM1 A549 cells = assay: Cell viability / Crystal Violet Cytotoxicity Assay, dose-response IC50, shSQSTM1 A549 cells
Procedure: as §1, §2

[3] = system: HLA-B and PD-L1 expression in ShSQSTM1 A549 cells; assay: IFN/HLA-B/PD-L1 pathway expression (qRT-PCR, western blot, flow cytometry) in SQSTM1-depleted A549 cells; conditions: docetaxel 5 nM; for TBK1/STAT1 phosphorylation and expression of IFN, HLA-B and PD-L1 in SQSTM1-depleted cells: Cisplatin 10 μM, IFNG 50 ng/ml
Procedure: as §2
Quantitative real-time polymerase chain reaction analysis was performed on equal amounts of cDNA using the SYBR Green master mix and an Applied StepOne Plus PCR system (Life technologies). Relative gene expression changes were quantified using the 2 [−ΔΔCt] method and normalized to the housekeeping gene RPLP0 compared to the untreated cell samples.
Cell-surface expression of PD-L1 was examined using flow cytometry. […] Flow cytometry analysis was performed on a Cytoflex flow cytometer (10,000 cells, Cytoflex software). The MFI (PD-L1-isotype) is calculated as the MFI (PD-L1) is subtracted by the MFI (isotype control).

[4] = system: 53BP1-positive foci in A549 cells; assay: Global DNA damage measured by 53BP1 focus formation (immunofluorescence); conditions: Cisplatin 10 μM, FIG. 18
Procedure: At the indicated time, global DNA damage (A) was measured by 53BP1 focus formation (right immunofluorescence staining, 53BP1 red, Dapi, blue. Left, cell percentage with more than five spots).

[5] = Shc A549, dose-response curves (Cell Treatments)
[6] = ShSQSTM1 A549, dose-response curves (Cell Treatments)
[7] = Homo sapiens, Shc A549, dose-response curves (Cell Treatments)
[8] = Homo sapiens, ShSQSTM1 A549, dose-response curves (Cell Treatments)

Molecule	Induction of HLA-B and PD-L1 expression [1]	TBK1/STAT1 phosphorylation and expression of IFN, HLA-B and PD-L1 in SQSTM1-depleted cells [3]	IC50 [2, 7] [nM]	IC50 (ShSQSTM1 A549 cells; [8]) [nM]	also measured
Nc1ncn([C@@H]2O[C@H](CO)[C@@H](O)[C@H]2O)c(=O)n1 [5-Azacytidine]	recapitulated the late expression of HLA-B and PD-L1				
N.N.[Cl][Pt][Cl] [Cisplatin]	most effective drug for inducing HLA-B and PD-L1	did not up-regulate			IC50 [2, 5]: 24000 nM; IC50 ([2]; control ShC A549 cells, Cisplatin 5 days, FIG. 14): 24000 ± 1400 nM; IC50 (ShSQSTM1 A549 cells; [6]): 47700 nM; IC50 (ShSQSTM1 A549 cells; ShSQSTM1 A549 cells, Cisplatin 5 days, FIG. 14): 51000 ± 5300 nM; Start of formation of 53BP1-positive foci [4]: 6 h; Time of peak value of 53BP1-positive foci [4]: 16 h
CC(=O)O[C@@]12CO[C@@H]1C[C@H](O)[C@@]1(C)C(=O)[C@H](O)C3=C(C)[C@@H](OC(=O)[C@H](O)[C@@H](NC(=O)OC(C)(C)C)c4ccccc4)C[C@@](O)([C@@H](OC(=O)c4ccccc4)[C@H]21)C3(C)C [Docetaxel]		significantly rescued	364	21.3	Growth arrest and DNMT1 downregulation ([1]; Shc A549 cells, docetaxel 5 nM, qRT-PCR): did trigger growth arrest and DNMT1 downregulation; Growth arrest and DNMT1 downregulation ([3]; qRT-PCR): did trigger growth arrest and DNMT1 downregulation
COc1cccc2c1C(=O)c1c(O)c3c(c(O)c1C2=O)C[C@@](O)(C(=O)CO)C[C@@H]3O[C@H]1C[C@H](N)[C@H](O)[C@H](C)O1 [Doxorubicin]	recapitulated the late induction of this pathway		364	486	
O=C(NCCCNc1nc(Nc2cccc(CN3CCOCC3)c2)ncc1C1CC1)C1CCC1 [MRT 67307]					Block of Cisplatin ability to induce IFN/HLA B/PD-L1 ([1]; co-treatment with Cisplatin 10 μM, MRT 67307 10 μM, Ruxolitinib 5 μM, FIG. 26): sufficient to block
O=C1[O][Pt]2([NH][C@@H]3CCCC[C@H]3[NH]2)[O]C1=O [Oxaliplatin]	recapitulated the late induction of this pathway				IC50 [2, 5]: 2610 nM; IC50 (ShSQSTM1 A549 cells; [6]): 4510 nM
CC(=O)O[C@H]1C(=O)[C@@]2(C)[C@H]([C@H](OC(=O)c3ccccc3)[C@]3(O)C[C@H](OC(=O)[C@H](O)[C@@H](NC(=O)c4ccccc4)c4ccccc4)C(C)=C1C3(C)C)[C@]1(OC(C)=O)CO[C@@H]1C[C@@H]2O [Paclitaxel]			1.4	3.7	
CO/C1=C\C(C)=C\[C@@H](C)[C@@H](O)[C@@H](C)C/C(C)=C/C=C/[C@H](OC)[C@@H]([C@@H](C)[C@@H](O)[C@H](C)[C@@]2(O)C[C@@H](O)[C@H](C)[C@@H](C(C)C)O2)OC1=O [bafA1]					HLA-B and PD-L1 expression on pharmacological autophagy inhibition ([1]; A549 cells, data not shown): enhanced expression of HLA-B and PD-L1
IFNG: IFNγ (C-60724 Promokine), positive control (protein, UniProt P01579 24-161, looked up) Interferon gamma: QDPYVKEAENLKKYFNAGHSDVADNGTLFLGILKNWKEESDRKIMQSQIVSFYFKLFKNFKDDQSIQKSVETIKEDMNVKFFNSNKKKRDDFEKLTNYSVTDLNVQRKAIHELIQVMAELSPAAKTGKRKRSQMLFRG	induced STAT1 phosphorylation, HLA-B, and PD-L1 expression	induced STAT1 phosphorylation, HLA-B, and PD-L1 expression			
